Experimental data reported in PMC4877006, “From Binding-Induced Dynamic Effects in SH3 Structures to Evolutionary Conserved Sectors” (PLoS Computational Biology, 2016).

Experiments:
Parameters in all cases: species or system chicken
[1] = tested on: c-Src L40V (SH3 domain); assay: ITC binding of peptide RLP2 to c-Src SH3 L40V; details: 25 °C
Experimental: (§1) Differential Scanning Calorimetry (DSC) was used to evaluate the effect of the mutation on the conformational equilibrium and stability of the protein. Isothermal Titration Calorimetry (ITC) measured the binding energetics of all mutants to the RLP2 ligand at 25°C. The results for the 15 mutants studied are summarized in Figs 1D, S1 and S2, as well as S3 and S4 Tables.
(§2) The plasmid pET15b containing the chicken c-Src-SH3 domain gene was a generous gift from Dr. E. Freire (Johns Hopkins University). The genes encoding for the c-Src-SH3 mutants were obtained by site directed mutagenesis using the QuickChange Site-Directed-Mutagenesis Kit (Stratagene) taking the WT c-Src-SH3 plasmid as template or purchased from Top Gene Technologies, Canada. WT and mutants of c-Src-SH3 domain were expressed and purified as previously described for the wild type protein [68]. The peptide RLP2 (Ac-RALPPLPRY-NH2) was bought from Peptide 2.0 (Piscataway, USA) and JPT (Berlin, Germany) with a purity > 95%. Protein concentration was determined by absorbance at 280 nm using an extinction coefficient of 16500 M^-1·cm^-1. Peptide concentration was determined by absorbance at 274 nm using an extinction coefficient of 1400 M^-1·cm^-1.
(§3) Isothermal titration calorimetry was performed using a high-precision VP titration calorimetric system (Microcal Inc., Northampton, MA) as previously described. […] Titrations were made using a profile of injection volumes from 3 μL to 20 μL to define the titration curve more clearly. The heat produced by the binding reaction between the Src-SH3 domain and the peptide ligand was calculated as the difference between the heat of reaction and the corresponding heat of dilution, as obtained from independent titrations of the peptide ligand into the buffer. The resulting binding isotherms were analyzed by non-linear least-square fittings of the experimental data to a model corresponding to a single set of identical sites, as described before.
(§4) Supplementary file pcbi.1004938.s008.doc: S3 Table Analysis of Src SH3 binding affinities through ITC. Thermodynamic binding affinity to peptide RLP2. A * indicates experiment made by fluorescence titration only. (DOC) Click here for additional data file.

[2] = target: T1, c- Src R73Q (SH3 domain) (Gallus gallus, UniProt P00523); assay: ITC binding of peptide RLP2 to c-Src SH3 R73Q; details: 25 °C
T1 construct: The plasmid pET15b containing the chicken c-Src-SH3 domain gene; made in house
Experimental: as §1, §2, §3, §4

[3] = target: T2, c-Src F18L (SH3 domain) (Gallus gallus, UniProt P00523, F86L/Q128R); assay: ITC binding of peptide RLP2 to c-Src SH3 F18L; details: ITC, 25 °C
T2 construct: The plasmid pET15b containing the chicken c-Src-SH3 domain gene; made in house
Experimental: as §1, §2, §3, §4

[4] = tested on: c-Src F18L (SH3 domain); assay: ITC binding of peptide RLP2 to c-Src SH3 F18L; details: 25 °C, binding of RLP2, F18L relative to wt
Experimental: as §1, §2, §3, §4

[5] = target: T3, c- Src W56L (SH3 domain) (Gallus gallus, UniProt P00523, Q128R/W119L); assay: ITC binding of peptide RLP2 to c-Src SH3 W56L; details: 25 °C
T3 construct: The plasmid pET15b containing the chicken c-Src-SH3 domain gene; made in house
Experimental: as §1, §2, §3, §4

[6] = target: T4, c- Src I77V (SH3 domain) (Gallus gallus, UniProt P00523, I132V); assay: ITC binding of peptide RLP2 to c-Src SH3 I77V; details: 25 °C
T4 construct: The plasmid pET15b containing the chicken c-Src-SH3 domain gene; made in house
Experimental: as §1, §2, §3, §4

[7] = target: T5, c-Src R73K (SH3 domain) (Gallus gallus, UniProt P00523, Q128K); assay: ITC binding of peptide RLP2 to c-Src SH3 R73K; details: 25 °C
T5 construct: The plasmid pET15b containing the chicken c-Src-SH3 domain gene; made in house
Experimental: as §1, §2, §3, §4

[8] = target: T6, c-Src L40I (SH3 domain) (Gallus gallus, UniProt P00523, L108I); assay: ITC binding of peptide RLP2 to c-Src SH3 L40I; details: 25 °C
T6 construct: The plasmid pET15b containing the chicken c-Src-SH3 domain gene; made in house
Experimental: as §1, §2, §3, §4

[9] = target: T7, c-Src F18W (SH3 domain) (Gallus gallus, UniProt P00523, F86W); assay: ITC binding of peptide RLP2 to c-Src SH3 F18W; details: 25 °C, binding of RLP2, F18W relative to wt
T7 construct: The plasmid pET15b containing the chicken c-Src-SH3 domain gene; made in house
Experimental: as §1, §2, §3, §4

[10] = binding of RLP2, L40V relative to wt
[11] = binding of RLP2, R73Q relative to wt
[12] = binding of RLP2, W56L relative to wt
[13] = binding of RLP2, I77V relative to wt
[14] = binding of RLP2, R73K relative to wt
[15] = binding of RLP2, L40I relative to wt

∆∆Gb (25 ºC) [1, 10]: 0.24 ± 0.04 kcal/mol | ∆∆Hb (25 ºC) [1, 10]: -0.6 ± 0.3 kcal/mol | ∆Gb (25 ºC) ([1]; ITC, binding of RLP2, L40V): -6.39 ± 0.02 kcal/mol | ∆Hb (25 ºC) ([1]; ITC, binding of RLP2, L40V): -14.8 ± 0.2 kcal/mol | Kd ([1]; ITC, RLP2 about 2 mM titrated into SH3 (50-122 μM), L40V, read-out: Kd (25 ºC)): 20.5 ± 0.6 µM | ∆∆Gb (25 ºC) [2, 11]: -0.11 ± 0.04 kcal/mol | ∆∆Hb (25 ºC) [2, 11]: -0.4 ± 0.2 kcal/mol | ∆Gb (25 ºC) ([2]; ITC, binding of RLP2, R73Q): -6.74 ± 0.02 kcal/mol | ∆Hb (25 ºC) ([2]; ITC, binding of RLP2, R73Q): -14.6 ± 0.1 kcal/mol | Kd ([2]; ITC, RLP2 about 2 mM titrated into SH3 (50-122 μM), R73Q (control), read-out: Kd (25 ºC)): 11.4 ± 0.3 µM | ∆Gb (25 ºC) ([3]; binding of RLP2, F18L): -6.64 ± 0.01 kcal/mol | ∆Hb (25 ºC) ([3]; binding of RLP2, F18L): -14.5 ± 0.1 kcal/mol | Kd ([3]; RLP2 about 2 mM titrated into SH3 (50-122 μM), F18L, read-out: Kd (25 ºC)): 13.5 ± 0.3 µM | ∆∆Gb (25 ºC) [4]: -0.01 ± 0.03 kcal/mol | ∆∆Hb (25 ºC) [4]: -0.3 ± 0.2 kcal/mol | ∆∆Gb (25 ºC) [5, 12]: 0.98 ± 0.03 kcal/mol | ∆∆Hb (25 ºC) [5, 12]: 2.4 ± 0.2 kcal/mol | ∆Gb (25 ºC) ([5]; ITC, binding of RLP2, W56L): -5.65 ± 0.01 kcal/mol | ∆Hb (25 ºC) ([5]; ITC, binding of RLP2, W56L): -11.8 ± 0.1 kcal/mol | Kd ([5]; ITC, RLP2 about 2 mM titrated into SH3 (50-122 μM), W56L, read-out: Kd (25 ºC)): 72.5 ± 1.4 µM | ∆∆Gb (25 ºC) [6, 13]: 0.31 ± 0.03 kcal/mol | ∆∆Hb (25 ºC) [6, 13]: 0.5 ± 0.2 kcal/mol | ∆Hb (25 ºC) ([6]; ITC, binding of RLP2, I77V): -13.7 ± 0.1 kcal/mol | Kd ([6]; ITC, RLP2 about 2 mM titrated into SH3 (50-122 μM), I77V, read-out: Kd (25 ºC)): 15.5 ± 0.3 µM | ∆∆Gb (25 ºC) [7, 14]: -0.12 ± 0.04 kcal/mol | ∆∆Hb (25 ºC) [7, 14]: 0.3 ± 0.2 kcal/mol | ∆Gb (25 ºC) ([7]; ITC, binding of RLP2, R73K): -6.75 ± 0.02 kcal/mol | ∆Hb (25 ºC) ([7]; ITC, binding of RLP2, R73K): -13.9 ± 0.1 kcal/mol | Kd ([7]; ITC, RLP2 about 2 mM titrated into SH3 (50-122 μM), R73K (control), read-out: Kd (25 ºC)): 11.3 ± 0.4 µM | ∆∆Gb (25 ºC) [8, 15]: 0.24 ± 0.04 kcal/mol | ∆∆Hb (25 ºC) [8, 15]: 0.4 ± 0.4 kcal/mol | ∆Gb (25 ºC) ([8]; ITC, binding of RLP2, L40I): -6.39 ± 0.02 kcal/mol | ∆Hb (25 ºC) ([8]; ITC, binding of RLP2, L40I): -13.8 ± 0.3 kcal/mol | Kd ([8]; ITC, RLP2 about 2 mM titrated into SH3 (50-122 μM), L40I, read-out: Kd (25 ºC)): 20.6 ± 0.6 µM | ∆∆Gb (25 ºC) [9]: 0.23 ± 0.03 kcal/mol | ∆∆Hb (25 ºC) [9]: 1.2 ± 0.2 kcal/mol
Substance: Ac-RALPPLPRY-NH2 [RLP2, Ac-RALPPLPRY-NH2]
